Tested on: total HDAC
Experiment: In vitro total HDAC activity (Fluor-de-Lys, HeLa nuclear extract)
Type: biochemical, human
Details: screening at 100 µM, result in words
Procedure: In vitro total HDAC activity was measured according to manufacturer's instructions using a nuclear extract from HeLa cells (human cervical cancer cell line) as HDAC source incubated with the Fluor-de-Lys® substrate (50 µM) for 20 min at room temperature (Fluor-de-Lys®, Enzo® Life Sciences, Antwerpen, Belgium). Reaction was stopped by addition of a developing solution (Fluor-de-Lys® developer I concentrate, Enzo® Life Sciences) containing trichostatin A (TSA) (2 µM). After 15 min of incubation at room temperature, fluorescence signal was measured on a fluorescence microplate reader (SYNERGY HTX multi-mode reader) with an exciting wavelength of 360 nm and emission wavelength of 460 nm. All dilutions of tested compounds were prepared in dimethylsulfoxide (DMSO).
Representative examples of 3-aminopyridines and 3,5-disubstituted nitrobenzenes were screened for their total HDAC inhibition capacity at 100 µM (Table 2). It was observed that only nitro-containing examples were active in the total HDAC screening assay (compounds 1, 3, 9 and 5), which moved forward to the specific HDAC8 isoenzyme assay (Table 3).

SMILES	total HDAC inhibition capacity
Nc1cc(C(=O)c2cc([N+](=O)[O-])ccc2O)cnc1-c1ccccc1 [Compound 1, (5-Amino-6-phenylpyridin-3-yl)(2-hydroxy-5-nitrophenyl)methanone]	active
Nc1cc(C(=O)c2ccccc2O)cnc1-c1ccc([N+](=O)[O-])cc1 [Compound 3, [5-Amino-6-(4-nitrophenyl)pyridin-3-yl](2-hydroxyphenyl)methanone]	active
O=C(c1cc(C(=O)c2cc([N+](=O)[O-])ccc2O)cc([N+](=O)[O-])c1)c1cc([N+](=O)[O-])ccc1O [Compound 5, (5-Nitro-1,3-phenylene)bis[(2-hydroxy-5-nitrophenyl)methanone]]	active
N#Cc1ccc(-c2ncc(C(=O)c3cc([N+](=O)[O-])ccc3O)cc2N)cc1 [Compound 9, 4-[3-amino-5-(2-hydroxy-5-nitrobenzoyl)pyridin-2-yl]benzonitrile]	active

Same assay, conditions: total HDAC activity, nuclear extract from HeLa cells, compound at 100 µM

SMILES	%Inhibition at 100 µM
Nc1cc(C(=O)c2ccccc2O)cnc1-c1ccccc1	Inactive
Nc1cc(C(=O)c2ccccc2O)cnc1-c1ccc2ccccc2c1	Inactive
Cc1cc(C(=O)c2cnc(-c3ccccc3)c(N)c2)c(O)c([N+](=O)[O-])c1	67%
O=C(c1cc(C(=O)c2ccccc2O)cc([N+](=O)[O-])c1)c1ccccc1O	Inactive
Cc1ccc(O)c(C(=O)c2cc(C(=O)c3cc(C)ccc3O)cc([N+](=O)[O-])c2)c1	Inactive
O=C(c1cc(C(=O)c2cc(Cl)ccc2O)cc([N+](=O)[O-])c1)c1cc(Cl)ccc1O	Inactive
COc1cccc(O)c1C(=O)c1cc(C(=O)c2c(O)cccc2OC)cc([N+](=O)[O-])c1	Inactive
Cc1cc(C(=O)c2cc(C(=O)c3cc(C)cc([N+](=O)[O-])c3O)cc([N+](=O)[O-])c2)c(O)c([N+](=O)[O-])c1	65%
Nc1cc(C(=O)c2cc([N+](=O)[O-])ccc2O)cnc1-c1ccccc1 [drawing 28]	78%
N#Cc1ccc(-c2ncc(C(=O)c3cc([N+](=O)[O-])ccc3O)cc2N)cc1 [drawing 29]	82%
Nc1cc(C(=O)c2ccccc2O)cnc1-c1ccc([N+](=O)[O-])cc1 [drawing 30]	67%
O=C(c1cc(C(=O)c2cc([N+](=O)[O-])ccc2O)cc([N+](=O)[O-])c1)c1cc([N+](=O)[O-])ccc1O [drawing 37]	73%

Biological target: T1, recombinant protein HDAC8 (Homo sapiens, UniProt Q9BY41)
T1 construct: purchased Enzo Life Sciences
T1 sequence (Q9BY41 1-377): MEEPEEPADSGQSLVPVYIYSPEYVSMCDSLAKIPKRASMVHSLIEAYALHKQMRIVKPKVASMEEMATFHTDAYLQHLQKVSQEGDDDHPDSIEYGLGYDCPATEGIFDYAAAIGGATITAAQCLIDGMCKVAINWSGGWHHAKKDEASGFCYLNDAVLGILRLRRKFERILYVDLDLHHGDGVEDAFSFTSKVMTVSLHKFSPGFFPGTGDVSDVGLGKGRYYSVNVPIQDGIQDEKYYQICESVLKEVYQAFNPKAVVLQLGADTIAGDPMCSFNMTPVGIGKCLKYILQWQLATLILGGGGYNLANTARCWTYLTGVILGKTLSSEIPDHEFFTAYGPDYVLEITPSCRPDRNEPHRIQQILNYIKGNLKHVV
Experiment: In vitro HDAC8 isoenzyme activity (Fluor-de-Lys-HDAC8 substrate)
Type: biochemical
Details: 1 U/well, substrate 50 µM
Procedure: In vitro HDAC8 isoenzyme activity was tested using 1 U/well of recombinant protein HDAC8 (Enzo® Life Sciences) incubated with the Fluor-de-Lys®-HDAC8 substrate (50 µM) for 20 min at room temperature. Reactions were stopped by adding a developer II solution (Fluor-de-Lys® developer II concentrate, Enzo® Life Sciences) containing 2 µM of TSA. After 45 min of incubation at room temperature, fluorescence is measured as for total HDAC activity.

IC50 [µM]	SMILES
74	Nc1cc(C(=O)c2cc([N+](=O)[O-])ccc2O)cnc1-c1ccccc1 [drawing 39]
58	N#Cc1ccc(-c2ncc(C(=O)c3cc([N+](=O)[O-])ccc3O)cc2N)cc1 [drawing 40]

SMILES	IC50 [µM]
O=C(c1cc(C(=O)c2cc([N+](=O)[O-])ccc2O)cc([N+](=O)[O-])c1)c1cc([N+](=O)[O-])ccc1O [Compound 5, (5-Nitro-1,3-phenylene)bis[(2-hydroxy-5-nitrophenyl)methanone]]	27

Tested on: total HDAC
Experiment: In vitro total HDAC activity (Fluor-de-Lys, HeLa nuclear extract)
Type: biochemical, human
Details: nuclear extract from HeLa cells, 1µM (footnote a)

SMILES	%Inhibition of 1µM
CC(/C=C/C(=O)NO)=C\[C@@H](C)C(=O)c1ccc(N(C)C)cc1 [Trichostatin A]	90^a %
